This is an account of results in PubChem BioAssay (NCI).

Test systems include SF-539 CNS; T-47D breast; M14 melanoma; OVCAR-8 ovarian; CAKI-1 renal; K-562 leukemia; SN12C renal; NCI-H460 lung; RXF 393 renal; OVCAR-3 ovarian.
Holding throughout (assay): NCI anticancer screen, dose series, 48 h

Values joined by “and” are separate entries in the source; they are usually repeats but may differ in a detail not shown here. Identical values can stand only once.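 In this assay, cells in 96-well plates receive the compound at five concentrations for 48 hours. Endpoints are linearly interpolated between the surrounding concentrations. At the GI50, growth is halved. TGI is the concentration that stops growth completely.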

For `Cc1nc2sc(C(=O)Nc3cccc4ccccc34)c(N)c2cc1C(=O)c1ccccc1`, the GI50 with SF-539 CNS is 1.06 µM; with T-47D breast it was 3.64 µM; in the assay with M14 melanoma it was 1.23 µM; in the assay on OVCAR-8 ovarian it was 2.15 µM; with CAKI-1 renal, 1.62 µM; in the assay on K-562 leukemia, 0.93 µM. For the same compound, the values for the GI50 with SN12C renal and in the assay with NCI-H460 lung were 2.98 µM and 0.727 µM, respectively. In addition, the TGI with SF-539 CNS is 2.71 µM; in the assay on T-47D breast, > 50 µM; in the assay on M14 melanoma, > 50 µM; in the assay with OVCAR-8 ovarian it was > 50 µM; with CAKI-1 renal it was > 50 µM; in the assay on K-562 leukemia, > 50 µM. Also, the TGI with SN12C renal is > 50 µM; in the assay with NCI-H460 lung it was 6.32 µM.
For `Nc1ccc2c(c1)NCCN2`, the TGI with SF-539 CNS, with RXF 393 renal, in the assay with M14 melanoma, with OVCAR-8 ovarian, in the assay on CAKI-1 renal and with K-562 leukemia was > 100 µM throughout. The TGI with SN12C renal, in the assay on NCI-H460 lung and in the assay on OVCAR-3 ovarian was > 100 µM each time.
Turning to `CCOC(=O)c1[nH]c(-c2ccc(Cl)cc2)cc1-c1cccnc1`, the GI50 is 0.423 µM with SF-539 CNS; 0.612 µM in the assay with T-47D breast; 1.27 µM in the assay with RXF 393 renal; 2.51 µM with OVCAR-8 ovarian; 0.391 µM with K-562 leukemia; 1.44 µM with SN12C renal. The GI50 in the assay with NCI-H460 lung is 0.449 µM; with OVCAR-3 ovarian, 0.349 µM. Further, the TGI in the assay on SF-539 CNS was 7.14 µM; in the assay on T-47D breast it was > 100 µM; in the assay with RXF 393 renal, 7.23 µM; in the assay with OVCAR-8 ovarian it was > 100 µM; in the assay with K-562 leukemia it was > 100 µM; with SN12C renal, > 100 µM. Also, the TGI in the assay with NCI-H460 lung and with OVCAR-3 ovarian was > 100 µM each time.
For the compound `C[C@]1(CO)[C@H]2CC[C@@]34C=C[C@@](CO)(CC[C@H]3[C@]2(C)CC[C@H]1O)C4`, the TGI is > 100 µM in the assay with SF-539 CNS; 84.3 µM in the assay on T-47D breast; > 100 µM with RXF 393 renal; > 100 µM in the assay with M14 melanoma; > 100 µM in the assay with OVCAR-8 ovarian; > 100 µM with CAKI-1 renal. Besides, the TGI in the assay with SN12C renal and in the assay on OVCAR-3 ovarian was > 100 µM throughout.
Consider `CCOC(=O)C(Cc1c[nH]c2ccc(N(CCCl)CCCl)cc12)(NC(C)=O)C(=O)OCC`, for which the GI50 in the assay with SF-539 CNS is 3.18 µM and 6.88 µM; in the assay with T-47D breast, 9.31 µM and 6.59 µM; in the assay with M14 melanoma it was 12.3 µM; with OVCAR-8 ovarian, 14.3 µM and 19.8 µM; with K-562 leukemia it was 22.7 µM and 12.2 µM; in the assay on SN12C renal, 8.82 µM and 8.93 µM. In addition, the GI50 in the assay with NCI-H460 lung was 1.82 µM and 0.765 µM; in the assay on OVCAR-3 ovarian it was 23.4 µM and 14.4 µM. The TGI in the assay on SF-539 CNS was 12.6 µM and 30.3 µM; in the assay on T-47D breast, 51.9 µM and > 71.8 µM; with M14 melanoma, 116 µM; in the assay with OVCAR-8 ovarian, 45 µM; with K-562 leukemia, 57.5 µM and 47.2 µM; in the assay with SN12C renal, 564 µM. In addition, the TGI in the assay on NCI-H460 lung was 17.7 µM and 132 µM; in the assay with OVCAR-3 ovarian, 65.7 µM and 35.1 µM.
On to `C=C=C(CC)C(C(=O)OC)N(CC)CC` (stereo unspecified), for which the TGI in the assay with SF-539 CNS, in the assay with RXF 393 renal, with M14 melanoma, in the assay on OVCAR-8 ovarian, with CAKI-1 renal and in the assay with K-562 leukemia was > 100 µM in each case. Also, the TGI in the assay with SN12C renal, with NCI-H460 lung and in the assay on OVCAR-3 ovarian was > 100 µM in each case.
For the compound `COc1cccc(NC(=O)CC(=O)N2N=C(N(CCC#N)c3ccccc3C)CC2c2ccccc2)c1` (stereo unspecified), the TGI in the assay on SF-539 CNS, in the assay on RXF 393 renal, with M14 melanoma, in the assay with OVCAR-8 ovarian, with CAKI-1 renal and in the assay on K-562 leukemia was > 100 µM throughout. Also, the TGI in the assay with SN12C renal, in the assay with NCI-H460 lung and in the assay with OVCAR-3 ovarian was > 100 µM in each case.
Regarding `Cn1c(=O)nc2n(-c3cccc(F)c3)c3ccccc3nc-2c1=O`, the TGI in the assay with SF-539 CNS is 66 µM; with RXF 393 renal, > 100 µM; in the assay with M14 melanoma, 67.1 µM; in the assay on OVCAR-8 ovarian, 77.1 µM; in the assay on CAKI-1 renal, 96.9 µM; in the assay with K-562 leukemia, 58.1 µM. Also, the values for the TGI in the assay on SN12C renal, in the assay on NCI-H460 lung and with OVCAR-3 ovarian were 73.9 µM, 67.1 µM and 21.5 µM, respectively.
Turning to `CCCCNN`, the TGI in the assay with T-47D breast, with RXF 393 renal, in the assay on M14 melanoma, in the assay with OVCAR-8 ovarian, in the assay on CAKI-1 renal and in the assay with K-562 leukemia was > 100 µM throughout. The TGI with SN12C renal and with OVCAR-3 ovarian was > 100 µM throughout.
Turning to `CCOC(=O)C(CO)c1nc2c([nH]c1=O)c(=O)n(C)c(=O)n2C` (stereo unspecified), the TGI in the assay with SF-539 CNS is > 100 µM; in the assay with T-47D breast, 60.8 µM; with M14 melanoma it was > 100 µM; with OVCAR-8 ovarian, > 100 µM; in the assay on CAKI-1 renal, > 100 µM; in the assay on K-562 leukemia, > 100 µM. Besides, the TGI in the assay on SN12C renal, in the assay with NCI-H460 lung and with OVCAR-3 ovarian was > 100 µM in each case.
For `O=C(NCCCNc1cc(-c2cn(-c3ccccc3)nc2-c2cccc(O)c2)ccn1)c1ccccc1`, the GI50 with SF-539 CNS is 3.02 µM; in the assay on T-47D breast, 1.57 µM; in the assay on RXF 393 renal, 1.97 µM; in the assay on M14 melanoma, 2.56 µM; in the assay with OVCAR-8 ovarian it was 4.45 µM; in the assay on CAKI-1 renal, 2.48 µM. The GI50 was 6 µM in the assay on SN12C renal, 3.61 µM in the assay on NCI-H460 lung and 3.73 µM with OVCAR-3 ovarian. For the same compound, the TGI in the assay on SF-539 CNS was found to be 10.3 µM; in the assay on T-47D breast it was 6.89 µM; in the assay on RXF 393 renal, 6.2 µM; with M14 melanoma it was 6.72 µM; with OVCAR-8 ovarian, 37.7 µM; in the assay with CAKI-1 renal it was 15.3 µM. For the same compound, the TGI is > 100 µM with SN12C renal, 18.7 µM in the assay on NCI-H460 lung and 21 µM in the assay with OVCAR-3 ovarian.
Regarding `C1CSCCCSCCSCCCSC1`, the TGI in the assay on SF-539 CNS, with T-47D breast, in the assay with RXF 393 renal, in the assay with M14 melanoma, in the assay on OVCAR-8 ovarian and with CAKI-1 renal was > 100 µM in each case. Besides, the TGI in the assay with K-562 leukemia, in the assay with SN12C renal and in the assay on NCI-H460 lung was > 100 µM throughout.
